{"source": "PubChem BioAssay AID2060491", "about": "(Molecular Pharmacology Branch, DTP, NCI, 2025);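 also: spheroids exposed to compounds for one week before readout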;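 as to viability, T/C: percent viability relative to vehicle DMSO wells taken as 100%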", "system": "857933-349-R-J2-PDC complex spheroids, viability", "experiment": "Anticancer human tumor 857933-349-R-J2-PDC patient-derived colon adenocarcinoma cell line growth inhibition [GQUAD]", "conditions": "for IC50: curve of first compound; for viability, T/C: stronger effect = lower value", "procedure,_shortened": "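Viability of tumor cells grown as complex spheroids with endothelial and stromal cells, exposed to drug combinations. Top concentration at or near clinical Cmax (else 10 microM), diluted in half-log increments.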", "key": {"[1]": {"conditions": "second compound 0.0316 µM, first compound 0.0316 µM"}, "[2]": {"conditions": "second compound 0.0316 µM, first compound 0.316 µM"}, "[3]": {"conditions": "second compound 0.1 µM, first compound 0.0316 µM"}, "[4]": {"conditions": "second compound 0.1 µM, first compound 0.316 µM"}, "[5]": {"conditions": "second compound 0.316 µM, first compound 0.0316 µM"}, "[6]": {"conditions": "second compound 0.316 µM, first compound 0.316 µM"}, "[7]": {"conditions": "second compound 1 µM, first compound 0.0316 µM"}, "[8]": {"conditions": "second compound 1 µM, first compound 0.316 µM"}, "[9]": {"conditions": "second compound 3.16 µM, first compound 0.0316 µM"}, "[10]": {"conditions": "second compound 3.16 µM, first compound 0.316 µM"}, "[11]": {"conditions": "second compound 10 µM, first compound 0.0316 µM"}, "[12]": {"conditions": "second compound 10 µM, first compound 0.316 µM"}}}
{"smiles": "Cn1ncnc1[C@H]1c2n[nH]c(=O)c3cc(F)cc(c23)N[C@@H]1c1ccc(F)cc1", "note": "+ CN(C)c1ccc(Nc2c3ccc(NC(=O)CCN4CCCC4)cc3nc3cc(NC(=O)CCN4CCCC4)ccc23)cc1", "values": [{"measurement": "IC50", "setting": "second compound 0.0316 µM", "value": "> 0.316", "unit": "µM"}, {"measurement": "IC50", "setting": "second compound 0.1 µM", "value": "> 0.316", "unit": "µM"}, {"measurement": "IC50", "setting": "second compound 0.316 µM", "value": "> 0.316", "unit": "µM"}, {"measurement": "IC50", "setting": "second compound 1 µM", "value": "> 0.316", "unit": "µM"}, {"measurement": "IC50", "setting": "second compound 3.16 µM", "value": "> 0.316", "unit": "µM"}, {"measurement": "IC50", "setting": "second compound 10 µM", "value": "> 0.316", "unit": "µM"}, {"measurement": "viability, T/C", "setting": "second compound 0.0316 µM, first compound 0.000999 µM", "value": 108, "unit": "%"}, {"measurement": "viability, T/C", "setting": "second compound 0.0316 µM, first compound 0.00316 µM", "value": 97.2, "unit": "%"}, {"measurement": "viability, T/C", "setting": "second compound 0.0316 µM, first compound 0.00999 µM", "value": 99.4, "unit": "%"}, {"measurement": "viability, T/C", "setting": "[1]", "value": 106, "unit": "%"}, {"measurement": "viability, T/C", "setting": "second compound 0.0316 µM, first compound 0.0999 µM", "value": 109, "unit": "%"}, {"measurement": "viability, T/C", "setting": "[2]", "value": 102, "unit": "%"}, {"measurement": "viability, T/C", "setting": "second compound 0.1 µM, first compound 0.000999 µM", "value": 102, "unit": "%"}, {"measurement": "viability, T/C", "setting": "second compound 0.1 µM, first compound 0.00316 µM", "value": 99.9, "unit": "%"}, {"measurement": "viability, T/C", "setting": "second compound 0.1 µM, first compound 0.00999 µM", "value": 98.6, "unit": "%"}, {"measurement": "viability, T/C", "setting": "[3]", "value": 105, "unit": "%"}, {"measurement": "viability, T/C", "setting": "second compound 0.1 µM, first compound 0.0999 µM", "value": 104, "unit": "%"}, {"measurement": "viability, T/C", "setting": "[4]", "value": 101, "unit": "%"}, {"measurement": "viability, T/C", "setting": "second compound 0.316 µM, first compound 0.000999 µM", "value": 106, "unit": "%"}, {"measurement": "viability, T/C", "setting": "second compound 0.316 µM, first compound 0.00316 µM", "value": 100, "unit": "%"}, {"measurement": "viability, T/C", "setting": "second compound 0.316 µM, first compound 0.00999 µM", "value": 98.8, "unit": "%"}, {"measurement": "viability, T/C", "setting": "[5]", "value": 97.7, "unit": "%"}, {"measurement": "viability, T/C", "setting": "second compound 0.316 µM, first compound 0.0999 µM", "value": 105, "unit": "%"}, {"measurement": "viability, T/C", "setting": "[6]", "value": 99.7, "unit": "%"}, {"measurement": "viability, T/C", "setting": "second compound 1 µM, first compound 0.000999 µM", "value": 102, "unit": "%"}, {"measurement": "viability, T/C", "setting": "second compound 1 µM, first compound 0.00316 µM", "value": 92, "unit": "%"}, {"measurement": "viability, T/C", "setting": "second compound 1 µM, first compound 0.00999 µM", "value": 96.4, "unit": "%"}, {"measurement": "viability, T/C", "setting": "[7]", "value": 96, "unit": "%"}, {"measurement": "viability, T/C", "setting": "second compound 1 µM, first compound 0.0999 µM", "value": 101, "unit": "%"}, {"measurement": "viability, T/C", "setting": "[8]", "value": 94.6, "unit": "%"}, {"measurement": "viability, T/C", "setting": "second compound 3.16 µM, first compound 0.000999 µM", "value": 90.1, "unit": "%"}, {"measurement": "viability, T/C", "setting": "second compound 3.16 µM, first compound 0.00316 µM", "value": 81.3, "unit": "%"}, {"measurement": "viability, T/C", "setting": "second compound 3.16 µM, first compound 0.00999 µM", "value": 84.3, "unit": "%"}, {"measurement": "viability, T/C", "setting": "[9]", "value": 85.8, "unit": "%"}, {"measurement": "viability, T/C", "setting": "second compound 3.16 µM, first compound 0.0999 µM", "value": 90, "unit": "%"}, {"measurement": "viability, T/C", "setting": "[10]", "value": 86.5, "unit": "%"}, {"measurement": "viability, T/C", "setting": "second compound 10 µM, first compound 0.000999 µM", "value": 71.2, "unit": "%"}, {"measurement": "viability, T/C", "setting": "second compound 10 µM, first compound 0.00316 µM", "value": 77, "unit": "%"}, {"measurement": "viability, T/C", "setting": "second compound 10 µM, first compound 0.00999 µM", "value": 70.8, "unit": "%"}, {"measurement": "viability, T/C", "setting": "[11]", "value": 77.5, "unit": "%"}, {"measurement": "viability, T/C", "setting": "second compound 10 µM, first compound 0.0999 µM", "value": 75.4, "unit": "%"}, {"measurement": "viability, T/C", "setting": "[12]", "value": 71.7, "unit": "%"}]}
{"smiles": "O=C(c1cc(Cc2n[nH]c(=O)c3ccccc23)ccc1F)N1CCN(C(=O)C2CC2)CC1", "note": "+ CN(C)c1ccc(Nc2c3ccc(NC(=O)CCN4CCCC4)cc3nc3cc(NC(=O)CCN4CCCC4)ccc23)cc1", "values": [{"measurement": "IC50", "setting": "second compound 0.0316 µM", "value": "> 10", "unit": "µM"}, {"measurement": "IC50", "setting": "second compound 0.1 µM", "value": "> 10", "unit": "µM"}, {"measurement": "IC50", "setting": "second compound 0.316 µM", "value": "> 10", "unit": "µM"}, {"measurement": "IC50", "setting": "second compound 1 µM", "value": "> 10", "unit": "µM"}, {"measurement": "IC50", "setting": "second compound 3.16 µM", "value": "> 10", "unit": "µM"}, {"measurement": "IC50", "setting": "second compound 10 µM", "value": "> 10", "unit": "µM"}, {"measurement": "viability, T/C", "setting": "[1]", "value": 111, "unit": "%"}, {"measurement": "viability, T/C", "setting": "second compound 0.0316 µM, first compound 0.1 µM", "value": 99.1, "unit": "%"}, {"measurement": "viability, T/C", "setting": "[2]", "value": 108, "unit": "%"}, {"measurement": "viability, T/C", "setting": "second compound 0.0316 µM, first compound 1 µM", "value": 98.8, "unit": "%"}, {"measurement": "viability, T/C", "setting": "second compound 0.0316 µM, first compound 3.16 µM", "value": 106, "unit": "%"}, {"measurement": "viability, T/C", "setting": "second compound 0.0316 µM, first compound 10 µM", "value": 107, "unit": "%"}, {"measurement": "viability, T/C", "setting": "[3]", "value": 109, "unit": "%"}, {"measurement": "viability, T/C", "setting": "second compound 0.1 µM, first compound 0.1 µM", "value": 104, "unit": "%"}, {"measurement": "viability, T/C", "setting": "[4]", "value": 100, "unit": "%"}, {"measurement": "viability, T/C", "setting": "second compound 0.1 µM, first compound 1 µM", "value": 104, "unit": "%"}, {"measurement": "viability, T/C", "setting": "second compound 0.1 µM, first compound 3.16 µM", "value": 99.8, "unit": "%"}, {"measurement": "viability, T/C", "setting": "second compound 0.1 µM, first compound 10 µM", "value": 108, "unit": "%"}, {"measurement": "viability, T/C", "setting": "[5]", "value": 103, "unit": "%"}, {"measurement": "viability, T/C", "setting": "second compound 0.316 µM, first compound 0.1 µM", "value": 99.3, "unit": "%"}, {"measurement": "viability, T/C", "setting": "[6]", "value": 103, "unit": "%"}, {"measurement": "viability, T/C", "setting": "second compound 0.316 µM, first compound 1 µM", "value": 98.4, "unit": "%"}, {"measurement": "viability, T/C", "setting": "second compound 0.316 µM, first compound 3.16 µM", "value": 109, "unit": "%"}, {"measurement": "viability, T/C", "setting": "second compound 0.316 µM, first compound 10 µM", "value": 107, "unit": "%"}, {"measurement": "viability, T/C", "setting": "[7]", "value": 96, "unit": "%"}, {"measurement": "viability, T/C", "setting": "second compound 1 µM, first compound 0.1 µM", "value": 95.6, "unit": "%"}, {"measurement": "viability, T/C", "setting": "[8]", "value": 104, "unit": "%"}, {"measurement": "viability, T/C", "setting": "second compound 1 µM, first compound 1 µM", "value": 93.7, "unit": "%"}, {"measurement": "viability, T/C", "setting": "second compound 1 µM, first compound 3.16 µM", "value": 109, "unit": "%"}, {"measurement": "viability, T/C", "setting": "second compound 1 µM, first compound 10 µM", "value": 98.5, "unit": "%"}, {"measurement": "viability, T/C", "setting": "[9]", "value": 91.2, "unit": "%"}, {"measurement": "viability, T/C", "setting": "second compound 3.16 µM, first compound 0.1 µM", "value": 82, "unit": "%"}, {"measurement": "viability, T/C", "setting": "[10]", "value": 91.2, "unit": "%"}, {"measurement": "viability, T/C", "setting": "second compound 3.16 µM, first compound 1 µM", "value": 84, "unit": "%"}, {"measurement": "viability, T/C", "setting": "second compound 3.16 µM, first compound 3.16 µM", "value": 93.4, "unit": "%"}, {"measurement": "viability, T/C", "setting": "second compound 3.16 µM, first compound 10 µM", "value": 91.8, "unit": "%"}, {"measurement": "viability, T/C", "setting": "[11]", "value": 73.1, "unit": "%"}, {"measurement": "viability, T/C", "setting": "second compound 10 µM, first compound 0.1 µM", "value": 76.3, "unit": "%"}, {"measurement": "viability, T/C", "setting": "[12]", "value": 75.4, "unit": "%"}, {"measurement": "viability, T/C", "setting": "second compound 10 µM, first compound 1 µM", "value": 73.2, "unit": "%"}, {"measurement": "viability, T/C", "setting": "second compound 10 µM, first compound 3.16 µM", "value": 80.5, "unit": "%"}, {"measurement": "viability, T/C", "setting": "second compound 10 µM, first compound 10 µM", "value": 81.5, "unit": "%"}]}
